# pIC50: −log10 of the molar value. Like-named read-outs stand apart in the source and are kept apart here.
# What was measured:
# BRD4-BD12 (1-477) = BRD4-BD12 (1-477) (Homo sapiens (Human), UniProt O60885); test: Alphascreen binding assay BRD4-BD12; details: BRD4(1 2) H4; read-out: Biochemical activity (IC50 μM) BRD4(1 2) H4
# Procedure, shortened: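 In this competition format, compounds displace a biotinylated tetra-acetyl H4 peptide from E. coli-expressed human BRD4 bromodomain constructs captured on nickel chelate beads. The reaction runs at pH 7.5 with 2 mM DTT and detergent for 1 h at room temperature before a 30 min bead step.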
# MV-4-11 cells = test: Oncology cell growth assay MV-4-11 (CellTiter Glo); type: cell-based; details: Homo sapiens, MV4-11, 72 h, read-out: Cell activity (IC50 μM) MV-4-11 3d-Growth
# Procedure, shortened: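 Growth read by CellTiter Glo luminescence after 72 h compound treatment of MLL-AF4-bearing MV-4-11 cells (3000/well). Titration: 8 points, 1:3 steps, maximum 10 μM, 0.2% DMSO final. Data normalized to DMSO wells, four-parameter fit gives pIC50.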
# bromodomain = test: at least one of the bromodomain cell assays of Example 57; type: cell-based; details: at least one of the bromodomain cell assays described in Example 57; read-out: IC50 in at least one of the bromodomain cell assays
SMILES,IC50 (BRD4-BD12 (1-477)) [µM],"IC50 (MV-4-11 cells; MV-4-11, 3d growth) [µM]",pIC50 (bromodomain),IC50 (MV-4-11 cells) [µM]
"COC(=O)c1ccc(-c2cn([C@@H](C)c3ccccn3)c3cc(-c4c(C)noc4C)cnc23)cc1 [P-0509, methyl 4-[6-(3,5-dimethylisoxazol-4-yl)-1-[(1S)-1-(2-pyridyl)ethyl]pyrrolo[3,2-b]pyridin-3-yl]benzoate]",< 1,< 1,> 5.00,
"COC(=O)c1ccc(-c2cn(Cc3cccnn3)c3cc(-c4c(C)noc4C)cnc23)cc1 [P-0539, methyl 4-[6-(3,5-dimethylisoxazol-4-yl)-1-(pyridazin-3-ylmethyl)pyrrolo[3,2-b]pyridin-3-yl]benzoate]",< 1,< 1,> 5.00,
"COC(=O)c1ccc(-c2cn(C(c3ccccn3)c3ccccn3)c3cc(-c4c(C)noc4C)cnc23)cc1 [P-0574, methyl 4-[1-[bis(2-pyridyl)methyl]-6-(3,5-dimethylisoxazol-4-yl)pyrrolo[3,2-b]pyridin-3-yl]benzoate]",< 1,< 1,> 5.00,
"Cc1noc(C)c1-c1cnc2c(I)cn(C(c3ccccn3)c3ccccn3)c2c1 [P-0575, 4-[1-[bis(2-pyridyl)methyl]-3-iodo-pyrrolo[3,2-b]pyridin-6-yl]-3,5-dimethyl-isoxazole]",< 1,< 1,> 5.00,
"Cc1noc(C)c1-c1cnc2c(-c3cnc(N)cn3)cn(CC3(F)CCCCC3)c2c1 [P-0472, 5-[6-(3,5-dimethylisoxazol-4-yl)-1-[(1-fluorocyclohexyl)methyl]pyrrolo[3,2-b]pyridin-3-yl]pyrazin-2-amine]",< 1,< 1,> 5.00,
Cc1noc(C)c1-c1cnc2c(-c3ccc(O)c(Cl)c3)cn(CC3(F)CCCCC3)c2c1 [P-0524],< 1,< 1,> 5.00,
"Cc1noc(C)c1-c1cnc2c(-c3ccc(C(=O)O)cc3)cn(C(C)(C)c3ccccn3)c2c1 [P-0548, 4-[6-(3,5-dimethylisoxazol-4-yl)-1-[1-methyl-1-(2-pyridyl)ethyl]pyrrolo[3,2-b]pyridin-3-yl]benzoic acid]",< 1,< 1,> 5.00,
"[2H]C([2H])(C1CCC(F)(F)CC1)n1cc(-c2ccc(OC)nc2)c2ncc(-c3c(C)noc3C)cc21 [P-0343, 4-[1-[dideuterio-(4,4-difluorocyclohexyl)methyl]-3-(6-methoxy-3-pyridyl)pyrrolo[3,2-b]pyridin-6-yl]-3,5-dimethyl-isoxazole]",< 1,,> 5.00,< 1
"CNS(=O)(=O)c1ccc(-c2cn(CC3(F)CCCCC3)c3cc(-c4c(C)noc4C)cnc23)cc1 [P-0378, 4-[6-(3,5-dimethylisoxazol-4-yl)-1-[(1-fluorocyclohexyl)methyl]pyrrolo[3,2-b]pyridin-3-yl]-N-methyl-benzenesulfonamide]",< 1,,> 5.00,< 1
"[2H]C([2H])(C1CCC(F)(F)CC1)n1cc(-c2cnc(C3CC3)nc2)c2ncc(-c3c(C)noc3C)cc21 [P-0349, 4-[3-(2-cyclopropylpyrimidin-5-yl)-1-[dideuterio-(4,4-difluorocyclohexyl)methyl)pyrrolo[3,2-b]pyridin-6-yl]-3,5-dimethyl-isoxazole]",< 1,,> 5.00,< 1
"Cc1noc(C)c1-c1cnc2c(-c3cnn(CC(F)(F)F)c3)cn(Cc3ccccn3)c2c1 [P-0376, 3,5-dimethyl-4-[1-(2-pyridylmethyl)-3-[1-(2,2,2-trifluoroethyl)pyrazol-4-yl]pyrrolo[3,2-b]pyridin-6-yl]isoxazole]",< 1,,> 5.00,< 1
"Cc1noc(C)c1-c1cnc2c(-c3cnn(CC(F)(F)F)c3)cn([C@@H](C)c3ccc(F)cc3)c2c1 [P-0354, 4-[1-[(1S)-1-(4-fluorophenyl)ethyl]-3-(1-(2,2,2-trifluoroethyl)pyrazol-4-yl]pyrrolo(3,2-b)pyridin-6-yl]-3,5-dimethyl-isoxazole]",< 1,,> 5.00,< 1
"Cc1nnn(C)c1-c1cnc2c(-c3ccc(C(=O)O)cc3)cn(CC3(F)CCC(F)(F)CC3)c2c1 [P-0373, 4-[6-(3,5-dimethyltriazol-4-yl)-1-[(1,4,4-trifluorocyclohexyl)methyl]pyrrolo[3,2-b]pyridin-3-yl]benzoic acid]",< 1,,> 5.00,< 1
"Cc1noc(C)c1-c1cnc2c(-c3cnn(C(F)F)c3)cn([C@H](C)c3ccc(F)cc3)c2c1 [P-0352, 4-[3-[1-(difluoromethyl)pyrazol-4-yl]-1-[(1R)-1-(4-fluorophenyl)ethyl]pyrrolo[3,2-b]pyridin-6-yl]-3,5-dimethyl-isoxazole]",< 1,,> 5.00,< 1
"Cc1noc(C)c1-c1cnc2c(-c3ccc(F)c(C(=O)O)c3)cn(CC3(F)CCCCC3)c2c1 [P-0467, 5-[6-(3,5-dimethylisoxazol-4-yl)-1-[(1-fluorocyclohexyl)methyl]pyrrolo[3,2-b]pyridin-3-yl]-2-fluoro-benzoic acid]",< 1,< 1,> 5.00,
"Cc1noc(C)c1-c1cnc2c(-c3cccc(S(N)(=O)=O)c3)cn(CC3(F)CCCCC3)c2c1 [P-0475, 3-[6-(3,5-dimethylisoxazol-4-yl)-1-[(1-fluorocyclohexyl)methyl]pyrrolo[3,2-b]pyridin-3-yl]benzenesulfonamide]",< 1,< 1,> 5.00,
"Cc1noc(C)c1-c1cnc2c(-c3cccc(NS(C)(=O)=O)c3)cn(CC3(F)CCCCC3)c2c1 [P-0492, N-[3-0[6-(3,5-dimethylisoxazol-4-yl)-1-[(1-fluorocyclohexyl)methyl]pyrrolo[3,2-b]pyridin-3-yl]phenyl]methanesulfonamide]",< 1,< 1,> 5.00,
"[2H]C([2H])(C1CCC(F)(F)CC1)n1cc(-c2cnn(CC)c2)c2ncc(-c3c(C)noc3C)cc21 [P-0336, 4-[1-[dideuterio-(4,4-difluorocyclohexyl)methyl]-3-(1-ethylpyrazol-4-yl)pyrrolo[3,2-b]pyridin-6-yl]-3,5-dimethyl-isoxazole]",< 1,,> 5.00,< 1
"Cc1ccc(-c2cn(CC3(C)CCOCC3)c3cc(-c4c(C)noc4C)cnc23)cc1 [P-0794, 3,5-dimethyl-4-[1-[(4-methyltetrahydropyran-4-yl)methyl]-3-(p-tolyl)pyrrolo[3,2-b]pyridin-6-yl]isoxazole]",< 1,1 to 10,> 5.00,
"Cc1noc(C)c1-c1cnc2c(-c3cnn(CC(F)(F)F)c3)cn(Cc3cccnn3)c2c1 [P-0531, 3,5-dimethyl-4-[1-(pyridazin-3-ylmethyl)-3-[1-(2,2,2-trifluoroethyl)pyrazin-4-yl]pyrrolo[3,2-b]pyridin-6-yl]isoxazole]",< 1,< 1,> 5.00,
"[2H]C([2H])(C1CCC(F)(F)CC1)n1cc(-c2ccc(=O)n(C)c2)c2ncc(-c3c(C)noc3C)cc21 [P-0345, 5-[1-[dideuterio-(4,4-difluorocyclohexyl)methyl]-6-(3,5-dimethylisoxazol-4-yl)pyrrolo[3,2-b]pyridin-3-yl]-1-methyl-pyridin-2-one]",< 1,,> 5.00,< 1
"CNS(=O)(=O)c1cccc(-c2cn(CC3(F)CCCCC3)c3cc(-c4c(C)noc4C)cnc23)c1 [P-0489, 3-[6-(3,5-dimethylisoxazol-4-yl)-1-[(1-fluorocyclohexyl)methyl]pyrrolo[3,2-b]pyridin-3-yl]-N-methyl-benzenesulfonamide]",< 1,< 1,> 5.00,
"Cc1ccc(-c2cn(CC3CCC(F)(F)CC3)c3cc(-c4c(C)noc4C)cnc23)cn1 [P-0397, 4-[1-[(4,4-difluorocyclohexyl)methyl]-3-(6-methyl-3-pyridyl)pyrrolo[3,2-b]pyridin-6-yl]-3,5-dimethyl-isoxazole]",< 1,,> 5.00,< 1
"Cc1noc(C)c1-c1cnc2c(-c3ccc(=O)n(C)c3)cn(CC3CCC(F)(F)CC3)c2c1 [P-0408, 5-[1-[(4,4-difluorocyclohexyl)methyl]-6-(3,5-dimethylisoxazol-4-yl)pyrrolo[3,2-b]pyridin-3-yl]-1-methyl-pyridin-2-one]",< 1,,> 5.00,< 1
"Cc1noc(C)c1-c1cnc2c(-c3ccc(S(N)(=O)=O)cc3)cn(CC3(F)CCCCC3)c2c1 [P-0379, 4-[6-(3,5-dimethylisoxazol-4-yl)-1-[(1-fluorocyclohexyl)methyl]pyrrolo[3,2-b]pyridin-3-yl]benzenesulfonamide]",< 1,,> 5.00,< 1
"COC(=O)Cc1ccc(-c2cn([C@@H](C)c3ccccn3)c3cc(-c4c(C)noc4C)cnc23)cc1 [P-0565, methyl 2-[4-[6-(3,5-dimethylisoxazol-4-yl)-1-[(1S)-1-(2-pyridyl)ethyl]pyrrolo[3,2-b]pyridin-3-yl]phenyl]acetate]",< 1,< 1,> 5.00,
"COc1cc(-c2cn(CC3CCC(F)(F)CC3)c3cc(-c4c(C)noc4C)cnc23)ccc1C(=O)O [P-0404, 4-[1-[(4,4-difluorocyclohexyl)methyl]-6-(3,5-dimethylisoxazol-4-yl)pyrrolo[3,2-b]pyridin-3-yl]-2-methoxy-benzoic acid]",< 1,,> 5.00,< 1

# Reference: patent US10519177B2, “Heterocyclic compounds and uses thereof” (Plexxikon Inc., priority 2013, dated 2019)
